Key:
[1] = tested on: pigweed; test: Test B pre/postemergence pigweed; type: in vivo, Amaranthus retroflexus; details: for Redroot pigweed plant response rating: scale of 0 to 10 where 0 is no effect and 10 is complete control
Summary of the method: (§1)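 Test chemicals in a non-phytotoxic solvent mixture with surfactant were sprayed preemergence onto planted seeds and postemergence onto plants 2 to 18 cm tall (1- to 4-leaf stage). After twelve to sixteen days in a greenhouse, injury was visually rated against untreated controls from 0 (no effect) to 10 (complete control).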

[2] = tested on: wild oat; test: Test B pre/postemergence wild oat; type: in vivo, Avena fatua; details: for Wild oats plant response rating: scale of 0 to 10 where 0 is no effect and 10 is complete control
Summary of the method: as §1

[3] = tested on: blackgrass; test: Test B pre/postemergence blackgrass; type: in vivo, Alopecurus myosuroides; details: for Blackgrass plant response rating: scale of 0 to 10 where 0 is no effect and 10 is complete control
Summary of the method: as §1

[4] = tested on: velvetleaf; test: Test B pre/postemergence velvetleaf; type: in vivo, Abutilon theophrasti; details: for Velvetleaf plant response rating: scale of 0 to 10 where 0 is no effect and 10 is complete control
Summary of the method: as §1

[5] = tested on: soybean; test: Test B pre/postemergence soybean; type: in vivo, Glycine max; details: for Soybean plant response rating: scale of 0 to 10 where 0 is no effect and 10 is complete control
Summary of the method: as §1

[6] = tested on: morningglory; test: Test B pre/postemergence morningglory; type: in vivo, Ipomoea hederacea; details: for Morningglory plant response rating: scale of 0 to 10 where 0 is no effect and 10 is complete control
Summary of the method: as §1

[7] = tested on: rape; test: Test B pre/postemergence rape; type: in vivo, Brassica napus; details: for Rape plant response rating: scale of 0 to 10 where 0 is no effect and 10 is complete control
Summary of the method: as §1

[8] = tested on: crabgrass; test: Test B pre/postemergence crabgrass; type: in vivo, Digitaria sanguinalis; details: for Crabgrass plant response rating: scale of 0 to 10 where 0 is no effect and 10 is complete control
Summary of the method: as §1

[9] = tested on: wheat; test: Test B pre/postemergence wheat; type: in vivo, Triticum aestivum; details: for Wheat plant response rating: scale of 0 to 10 where 0 is no effect and 10 is complete control
Summary of the method: as §1

[10] = tested on: surinam grass; test: Test B pre/postemergence surinam grass; type: in vivo, Brachiaria decumbens; details: for B. signalgrass plant response rating: scale of 0 to 10 where 0 is no effect and 10 is complete control
Summary of the method: as §1

[11] = tested on: purple nutsedge; test: Test B pre/postemergence purple nutsedge; type: in vivo, Cyperus rotundus; details: for Nutsedge plant response rating: scale of 0 to 10 where 0 is no effect and 10 is complete control
Summary of the method: as §1

[12] = tested on: giant foxtail; test: Test B pre/postemergence giant foxtail; type: in vivo, Setaria faberii; details: for Giant foxtail plant response rating: scale of 0 to 10 where 0 is no effect and 10 is complete control
Summary of the method: as §1

[13] = tested on: corn; test: Test B pre/postemergence corn; type: in vivo, Zea mays; details: for Corn plant response rating: scale of 0 to 10 where 0 is no effect and 10 is complete control
Summary of the method: as §1

[14] = tested on: bedstraw; test: Test B pre/postemergence bedstraw; type: in vivo, Galium aparine; details: Preemergence
Summary of the method: as §1

[15] = tested on: cocklebur; test: Test B pre/postemergence cocklebur; type: in vivo, Xanthium strumarium; details: for Cocklebur plant response rating: scale of 0 to 10 where 0 is no effect and 10 is complete control
Summary of the method: as §1

[16] = Postemergence, Rate 125 g/ha, scale 0 to 10, 0 is no effect, 10 is complete control
[17] = Postemergence, Rate 250 g/ha, scale 0 to 10, 0 is no effect, 10 is complete control
[18] = Preemergence, Rate 62 g/ha, scale 0 to 10 (0 no effect, 10 complete control)
[19] = Rate 500 g/ha, Postemergence, scale 0 to 10, 0 no effect, 10 complete control

SMILES: Cc1nsc(Cl)c1Cn1c(=O)on(C(=O)N(c2ccccc2)C(C)C)c1=O [Compound 374]
- Plant response rating, Redroot pigweed [1, 16]: 0
- Plant response rating, Redroot pigweed [1, 17]: 2
- Plant response rating, Redroot pigweed [1, 18]: 0
- Redroot pigweed plant response rating (0 to 10 scale) ([1]; Preemergence, Rate 125 g/ha): 0
- Redroot pigweed plant response rating ([1]; Preemergence, Rate 250 g/ha): 0
- Redroot pigweed plant response rating ([1]; Rate 62 g/ha, Postemergence): 0
- Plant response rating, Redroot pigweed [1, 19]: 6
- Plant response rating, Wild oats [2, 16]: 0
- Plant response rating, Wild oats [2, 17]: 0
- Plant response rating, Wild oats [2, 18]: 0
- Wild oats plant response rating (0 to 10 scale) ([2]; Preemergence, Rate 125 g/ha): 0
- Wild oats plant response rating ([2]; Preemergence, Rate 250 g/ha): 0
- Wild oats plant response rating ([2]; Preemergence, Rate 500 g/ha): 0
- Wild oats plant response rating ([2]; Rate 62 g/ha, Postemergence): 0
- Plant response rating, Blackgrass [3, 16]: 0
- Plant response rating, Blackgrass [3, 17]: 0
- Plant response rating, Blackgrass [3, 18]: 0
- Blackgrass plant response rating (0 to 10 scale) ([3]; Preemergence, Rate 125 g/ha): 2
- Blackgrass plant response rating ([3]; Preemergence, Rate 250 g/ha): 5
- Blackgrass plant response rating ([3]; Preemergence, Rate 500 g/ha): 6
- Blackgrass plant response rating ([3]; Rate 62 g/ha, Postemergence): 0
- Plant response rating, Velvetleaf [4, 16]: 0
- Plant response rating, Velvetleaf [4, 17]: 0
- Plant response rating, Velvetleaf [4, 18]: 0
- Velvetleaf plant response rating (0 to 10 scale) ([4]; Preemergence, Rate 125 g/ha): 0
- Velvetleaf plant response rating ([4]; Preemergence, Rate 250 g/ha): 0
- Velvetleaf plant response rating ([4]; Preemergence, Rate 500 g/ha): 0
- Velvetleaf plant response rating ([4]; Rate 62 g/ha, Postemergence): 0
- Plant response rating, Velvetleaf [4, 19]: 1
- Plant response rating, Soybean [5, 16]: 2
- Plant response rating, Soybean [5, 17]: 2
- Plant response rating, Soybean [5, 18]: 0
- Soybean plant response rating (0 to 10 scale) ([5]; Preemergence, Rate 125 g/ha): 0
- Soybean plant response rating ([5]; Preemergence, Rate 250 g/ha): 0
- Soybean plant response rating ([5]; Preemergence, Rate 500 g/ha): 0
- Soybean plant response rating ([5]; Rate 62 g/ha, Postemergence): 2
- Plant response rating, Soybean [5, 19]: 4
- Plant response rating, Morningglory [6, 16]: 5
- Plant response rating, Morningglory [6, 17]: 10
- Plant response rating, Morningglory [6, 18]: 0
- Morningglory plant response rating (0 to 10 scale) ([6]; Preemergence, Rate 125 g/ha): 0
- Morningglory plant response rating ([6]; Preemergence, Rate 250 g/ha): 0
- Morningglory plant response rating ([6]; Preemergence, Rate 500 g/ha): 0
- Plant response rating, Morningglory [6, 19]: 10
- Plant response rating, Rape [7, 16]: 2
- Plant response rating, Rape [7, 17]: 2
- Plant response rating, Rape [7, 18]: 0
- Rape plant response rating (0 to 10 scale) ([7]; Preemergence, Rate 125 g/ha): 0
- Rape plant response rating ([7]; Preemergence, Rate 250 g/ha): 2
- Rape plant response rating ([7]; Preemergence, Rate 500 g/ha): 7
- Rape plant response rating ([7]; Rate 62 g/ha, Postemergence): 0
- Plant response rating, Rape [7, 19]: 7
- Plant response rating, Crabgrass [8, 16]: 0
- Plant response rating, Crabgrass [8, 17]: 0
- Plant response rating, Crabgrass [8, 18]: 6
- Crabgrass plant response rating (0 to 10 scale) ([8]; Preemergence, Rate 125 g/ha): 6
- Crabgrass plant response rating ([8]; Preemergence, Rate 250 g/ha): 9
- Crabgrass plant response rating ([8]; Preemergence, Rate 500 g/ha): 9
- Crabgrass plant response rating ([8]; Rate 62 g/ha, Postemergence): 0
- Plant response rating, Crabgrass [8, 19]: 3
- Plant response rating, Wheat [9, 16]: 0
- Plant response rating, Wheat [9, 17]: 0
- Plant response rating, Wheat [9, 18]: 0
- Wheat plant response rating (0 to 10 scale) ([9]; Preemergence, Rate 125 g/ha): 0
- Wheat plant response rating ([9]; Preemergence, Rate 250 g/ha): 0
- Wheat plant response rating ([9]; Preemergence, Rate 500 g/ha): 0
- Wheat plant response rating ([9]; Rate 62 g/ha, Postemergence): 0
- Plant response rating, Wheat [9, 19]: 0
- Plant response rating, B. signalgrass [10, 16]: 0
- Plant response rating, B. signalgrass [10, 17]: 0
- Plant response rating, B. signalgrass [10, 18]: 0
- B. signalgrass plant response rating (0 to 10 scale, 0 is no effect, 10 is complete control) ([10]; Preemergence, Rate 125 g/ha): 0
- B. signalgrass plant response rating ([10]; Preemergence, Rate 250 g/ha): 2
- B. signalgrass plant response rating ([10]; Preemergence, Rate 500 g/ha): 5
- B. signalgrass plant response rating ([10]; Rate 62 g/ha, Postemergence): 0
- Plant response rating, B. signalgrass [10, 19]: 0
- Plant response rating, Nutsedge [11, 16]: 0
- Plant response rating, Nutsedge [11, 17]: 0
- Plant response rating, Nutsedge [11, 18]: 0
- Nutsedge plant response rating (0 to 10 scale) ([11]; Preemergence, Rate 125 g/ha): 0
- Nutsedge plant response rating ([11]; Preemergence, Rate 250 g/ha): 0
- Nutsedge plant response rating ([11]; Preemergence, Rate 500 g/ha): 0
- Nutsedge plant response rating ([11]; Rate 62 g/ha, Postemergence): 0
- Plant response rating, Nutsedge [11, 19]: 0
- Plant response rating, Giant foxtail [12, 16]: 0
- Plant response rating, Giant foxtail [12, 17]: 2
- Plant response rating, Giant foxtail [12, 18]: 8
- Giant foxtail plant response rating (0 to 10 scale) ([12]; Preemergence, Rate 125 g/ha): 9
- Giant foxtail plant response rating ([12]; Preemergence, Rate 250 g/ha): 10
- Giant foxtail plant response rating ([12]; Preemergence, Rate 500 g/ha): 10
- Giant foxtail plant response rating ([12]; Rate 62 g/ha, Postemergence): 0
- Plant response rating, Giant foxtail [12, 19]: 8
- Plant response rating, Corn [13, 16]: 0
- Plant response rating, Corn [13, 17]: 0
- Plant response rating, Corn [13, 18]: 0
- Corn plant response rating (0 to 10 scale) ([13]; Preemergence, Rate 125 g/ha): 0
- Corn plant response rating ([13]; Preemergence, Rate 250 g/ha): 0
- Corn plant response rating ([13]; Preemergence, Rate 500 g/ha): 0
- Corn plant response rating ([13]; Rate 62 g/ha, Postemergence): 0
- Plant response rating, Corn [13, 19]: 0
- Plant response rating, Bedstraw ([14]; Rate 62 g/ha, scale 0 to 10 (0 no effect, 10 complete control)): 0
- Bedstraw plant response rating (0 to 10 scale) ([14]; Rate 125 g/ha): 0
- Bedstraw plant response rating ([14]; Rate 250 g/ha, scale of 0 to 10 where 0 is no effect and 10 is complete control): 0
- Plant response rating, Cocklebur [15, 16]: 0
- Plant response rating, Cocklebur [15, 17]: 0
- Plant response rating, Cocklebur [15, 18]: 0
- Cocklebur plant response rating (0 to 10 scale) ([15]; Preemergence, Rate 125 g/ha): 0
- Cocklebur plant response rating ([15]; Preemergence, Rate 250 g/ha): 0
- Cocklebur plant response rating ([15]; Preemergence, Rate 500 g/ha): 0
- Cocklebur plant response rating ([15]; Rate 62 g/ha, Postemergence): 0
- Plant response rating, Cocklebur [15, 19]: 0
